In ChEMBL document CHEMBL4699440, “Comprehensive review on the anti-bacterial activity of 1,2,3-triazole hybrids” (Eur J Med Chem, 2019):
Values after ≈ are worked out from the molar mass of the structure shown.

Tests used:
[1] = test system: Staphylococcus aureus; assay: Antibacterial activity against Staphylococcus aureus; format: functional
[2] = test system: KB; assay: Cytotoxicity against human KB cells; format: cell-based; conditions: Homo sapiens, KB
[3] = test system: Bacillus cereus; assay: Antibacterial activity against Bacillus cereus; format: functional

| Compound | MIC [1] [µg/mL] | MIC [3] [µg/mL] | IC50 [2] [µg/mL] |
| --- | --- | --- | --- |
| CC(C)C[C@H](NC(=O)CNC(=O)C(C)(C)NC(=O)[C@@H](NC(=O)C(C)(C)NC(=O)[C@H](CCC(N)=O)NC(=O)[C@H](C)NC(=O)C(C)(C)NC(=O)[C@H](C)NC(=O)C(C)(C)NC(=O)[C@@H]1CCN(C(=O)C(C)(C)n2cc(-c3cc(C(F)(F)F)cc(C(F)(F)F)c3)nn2)C1)C(C)C)C(=O)NC(C)(C)C(=O)N1CCC[C@@H]1C(=O)N[C@H](C(=O)NC(C)(C)C(=O)NC(C)(C)C(=O)N[C@@H](CCC(N)=O)C(=O)N[C@@H](CCC(N)=O)C(=O)N[C@H](CO)Cc1ccccc1)C(C)C | 1.56 (≈ 0.714 µM) | 1.56 (≈ 0.714 µM) | 2.9 (≈ 1.33 µM) |
| COc1ccc2ccc(-c3cn(C(C)(C)C(=O)N4CC[C@@H](C(=O)NC(C)(C)C(=O)N[C@@H](C)C(=O)NC(C)(C)C(=O)N[C@@H](C)C(=O)N[C@@H](CCC(N)=O)C(=O)NC(C)(C)C(=O)N[C@H](C(=O)NC(C)(C)C(=O)NCC(=O)N[C@@H](CC(C)C)C(=O)NC(C)(C)C(=O)N5CCC[C@@H]5C(=O)N[C@H](C(=O)NC(C)(C)C(=O)NC(C)(C)C(=O)N[C@@H](CCC(N)=O)C(=O)N[C@@H](CCC(N)=O)C(=O)N[C@H](CO)Cc5ccccc5)C(C)C)C(C)C)C4)nn3)cc2c1 | 1.56 (≈ 0.733 µM) | 1.56 (≈ 0.733 µM) | 2.9 (≈ 1.36 µM) |
| CC(C)C[C@H](NC(=O)CNC(=O)C(C)(C)NC(=O)[C@@H](NC(=O)C(C)(C)NC(=O)[C@H](CCC(N)=O)NC(=O)[C@H](C)NC(=O)C(C)(C)NC(=O)[C@H](C)NC(=O)C(C)(C)NC(=O)[C@@H]1CCN(C(=O)C(C)(C)n2cc(-c3ccc4ccc5cccc6ccc3c4c56)nn2)C1)C(C)C)C(=O)NC(C)(C)C(=O)N1CCC[C@@H]1C(=O)N[C@H](C(=O)NC(C)(C)C(=O)NC(C)(C)C(=O)N[C@@H](CCC(N)=O)C(=O)N[C@@H](CCC(N)=O)C(=O)N[C@H](CO)Cc1ccccc1)C(C)C | 1.56 (≈ 0.718 µM) | 1.56 (≈ 0.718 µM) | 2.9 (≈ 1.33 µM) |
| CC(C)C[C@H](NC(=O)CNC(=O)C(C)(C)NC(=O)[C@@H](NC(=O)C(C)(C)NC(=O)[C@H](CCC(N)=O)NC(=O)[C@H](C)NC(=O)C(C)(C)NC(=O)[C@H](C)NC(=O)C(C)(C)NC(=O)[C@@H]1CCN(C(=O)C(C)(C)n2cc(-c3ccc(OC(F)(F)F)c(F)c3)nn2)C1)C(C)C)C(=O)NC(C)(C)C(=O)N1CCC[C@@H]1C(=O)N[C@H](C(=O)NC(C)(C)C(=O)NC(C)(C)C(=O)N[C@@H](CCC(N)=O)C(=O)N[C@@H](CCC(N)=O)C(=O)N[C@H](CO)Cc1ccccc1)C(C)C | 1.56 (≈ 0.725 µM) | 1.56 (≈ 0.725 µM) | 2.9 (≈ 1.35 µM) |

Now from value to molecule, other results behind:

| MIC [1] [µg/mL] | MIC [3] [µg/mL] | Compound | IC50 [2] [µg/mL] |
| --- | --- | --- | --- |
| 1.56 (≈ 0.748 µM) | 1.56 (≈ 0.748 µM) | CC(C)C[C@H](NC(=O)CNC(=O)C(C)(C)NC(=O)[C@@H](NC(=O)C(C)(C)NC(=O)[C@H](CCC(N)=O)NC(=O)[C@H](C)NC(=O)C(C)(C)NC(=O)[C@H](C)NC(=O)C(C)(C)NC(=O)[C@@H]1CCN(C(=O)C(C)(C)n2cc(-c3cc(F)cc(F)c3)nn2)C1)C(C)C)C(=O)NC(C)(C)C(=O)N1CCC[C@@H]1C(=O)N[C@H](C(=O)NC(C)(C)C(=O)NC(C)(C)C(=O)N[C@@H](CCC(N)=O)C(=O)N[C@@H](CCC(N)=O)C(=O)N[C@H](CO)Cc1ccccc1)C(C)C | 2.9 (≈ 1.39 µM) |
| 1.56 (≈ 0.737 µM) | 1.56 (≈ 0.737 µM) | CC(C)C[C@H](NC(=O)CNC(=O)C(C)(C)NC(=O)[C@@H](NC(=O)C(C)(C)NC(=O)[C@H](CCC(N)=O)NC(=O)[C@H](C)NC(=O)C(C)(C)NC(=O)[C@H](C)NC(=O)C(C)(C)NC(=O)[C@@H]1CCN(C(=O)C(C)(C)n2cc(-c3cccc(C(F)(F)F)c3)nn2)C1)C(C)C)C(=O)NC(C)(C)C(=O)N1CCC[C@@H]1C(=O)N[C@H](C(=O)NC(C)(C)C(=O)NC(C)(C)C(=O)N[C@@H](CCC(N)=O)C(=O)N[C@@H](CCC(N)=O)C(=O)N[C@H](CO)Cc1ccccc1)C(C)C | 2.9 (≈ 1.37 µM) |
